Measured values as given in patent US20240246934A1, “QUINAZOLINE-BASED COMPOUND, COMPOSITION, AND APPLICATION OF QUINAZOLINE-BASED COMPOUND” (BEIJING SCITECH-MQ PHARMACEUTICALS LIMITED, priority 2021, published 2024).

Columns and labels:
[1] = Pharmacokinetics in SD rats, single intravenous injection and oral administration; type: in vivo, SD rat; conditions: for AUC(0-inf) / AUC(0-t) / Vd / half-life / bioavailability / Cmax / Tmax: SD, rat, whole blood; for bioavailability: PO 10 mg/kg vs IV 3 mg/kg, read-out: F % (bioavailability)
Outline: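 SD rats received a single IV or oral dose of a solution formulation; the oral group was fasted overnight (>12 hrs) and fed 2 hrs post-dose, the IV group not fasted. Blood and brain were sampled at set times and analysed by LC/MS; CL, Vd, T1/2, Cmax, Tmax, AUC, MRT and F % come from plasma concentration-time data.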

[2] = system: Ba/F3 ERBB2 A775_G776insYVMA; assay: Efficacy in nude mouse tumor-bearing model of Ba/F3 ERBB2 A775_G776insYVMA; type: in vivo, BALB/c nude mice; conditions: 30 mg/kg
[3] = target: Ba/F3 HER2 A775_G776insYVMA cells (Homo sapiens, UniProt P04626, DUP772-775, cells depend on it); assay: Inhibition of cell proliferation, CTG method, Ba/F3 HER2 A775_G776insYVMA; type: cell-based; conditions: 72 hours, read-out: Ba/F3 HER2 A775-G776insYVMA IC50
Sequence of Ba/F3 HER2 A775_G776insYVMA cells (P04626 with tags, fused parts or gaps DUP772-775): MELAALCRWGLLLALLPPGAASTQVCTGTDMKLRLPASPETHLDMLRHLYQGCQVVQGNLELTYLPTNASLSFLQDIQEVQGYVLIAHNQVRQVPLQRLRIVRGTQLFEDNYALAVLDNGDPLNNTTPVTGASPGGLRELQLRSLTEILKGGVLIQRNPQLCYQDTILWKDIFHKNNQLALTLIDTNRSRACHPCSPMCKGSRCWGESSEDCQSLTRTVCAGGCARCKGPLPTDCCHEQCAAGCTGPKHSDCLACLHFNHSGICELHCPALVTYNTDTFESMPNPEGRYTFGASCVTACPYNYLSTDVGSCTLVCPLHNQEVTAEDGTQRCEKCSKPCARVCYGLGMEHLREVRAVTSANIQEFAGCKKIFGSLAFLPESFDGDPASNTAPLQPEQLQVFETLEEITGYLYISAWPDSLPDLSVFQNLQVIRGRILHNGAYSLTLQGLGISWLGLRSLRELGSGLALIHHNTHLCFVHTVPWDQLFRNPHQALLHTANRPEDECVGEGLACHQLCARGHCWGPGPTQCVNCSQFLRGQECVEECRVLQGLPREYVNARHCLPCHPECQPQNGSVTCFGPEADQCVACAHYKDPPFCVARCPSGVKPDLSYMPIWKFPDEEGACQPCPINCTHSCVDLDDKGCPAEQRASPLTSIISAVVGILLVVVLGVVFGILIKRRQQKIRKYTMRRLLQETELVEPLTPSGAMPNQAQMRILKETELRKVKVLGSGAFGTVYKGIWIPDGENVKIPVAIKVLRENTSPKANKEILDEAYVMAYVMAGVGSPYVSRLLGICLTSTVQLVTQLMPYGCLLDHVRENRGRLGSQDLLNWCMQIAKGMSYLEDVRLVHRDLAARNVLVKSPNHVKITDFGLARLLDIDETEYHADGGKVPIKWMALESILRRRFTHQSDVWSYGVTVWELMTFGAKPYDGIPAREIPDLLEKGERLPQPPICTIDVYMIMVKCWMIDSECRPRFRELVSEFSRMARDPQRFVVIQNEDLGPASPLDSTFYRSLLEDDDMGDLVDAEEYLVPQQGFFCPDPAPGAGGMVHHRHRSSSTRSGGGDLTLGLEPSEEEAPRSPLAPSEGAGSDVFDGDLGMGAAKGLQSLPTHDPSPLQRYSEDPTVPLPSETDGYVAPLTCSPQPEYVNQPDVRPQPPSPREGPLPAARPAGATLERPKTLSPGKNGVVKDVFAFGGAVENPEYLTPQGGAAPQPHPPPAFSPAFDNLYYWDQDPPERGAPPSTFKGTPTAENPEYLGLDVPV
Outline: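 Ba/F3 HER2 A775_G776insYVMA cells in RPMI1640 with 10% FBS were plated at 3000 cells/well and treated directly with compound (top 10 μM, 4-fold, 9 concentrations, duplicates).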

[4] = NA: Exposure was too low to be counted
[5] = PO 10 mg/kg, NA: Exposure was too low to be counted

Row | Cl_obs ([1]; IV 3 mg/kg) [mL/min/kg] | AUC(0-inf) ([1]; IV 3 mg/kg) [ng·h/mL] | AUC(0-t) ([1]; IV 3 mg/kg) [ng·h/mL] | Vd ([1]; IV 3 mg/kg) [L/kg] | half-life ([1]; IV 3 mg/kg) [h] | bioavailability [1, 4] [%] | AUC(0-inf) [1, 5] [ng·h/mL] | AUC(0-t) [1, 5] [ng·h/mL] | Cmax [1, 5] [ng/mL] | Tmax [1, 5] [h] | half-life [1, 5] [h] | GI50 [3] [nM] | SMILES | T/C (%) ([2]; QD×14, PO, day 14) | T/C (%) ([2]; QD×11, PO, day 11) | T/C (%) ([2]; QD×15, PO, day 15)
1 | 52.1 ± 9.3 | 979 ± 161 | 968 ± 156 | 20.2 ± 2.6 | 4.5 ± 0.21 | 27.6 ± 6.8 | 902 ± 223 | 888 ± 221 | 65.7 ± 19.9 | 5.33 ± 2.89 | 3.69 ± 0.31 | < 1 | COc1c(NC(=O)/C=C/[C@H]2CCCN2C)ccc2ncnc(Nc3ccc(OCc4ccccn4)c(Cl)c3)c12 [Example 4, (R,E)-N-(4-((3-chloro-4-(pyridin-2-ylmethoxy)phenyl)amino)-5-methoxyquinazolin-6-yl)-3-(1-methylpyrrolidin-2-yl)acrylamide] | 2.6 |  | 
2 | 54.0 ± 7.4 | 938 ± 134 | 914 ± 129 | 22.7 ± 2.4 | 4.86 ± 0.23 | 36.3 ± 3.4 | 1130 ± 106 | 1100 ± 107 | 95.3 ± 16.5 | 3.33 ± 3.21 | 4.63 ± 0.26 | < 1 | CCN1CCC[C@@H]1/C=C/C(=O)Nc1ccc2ncnc(Nc3ccc(OCc4ccccn4)c(Cl)c3)c2c1OC [Example 29, (R,E)-N-(4-((3-chloro-4-(pyridin-2-ylmethoxy)phenyl)amino)-5-methoxyquinazolin-6-yl)-3-(1-ethylpyrrolidin-2-yl)acrylamide] |  | 18.7 | 
3 | 53.0 ± 6.7 | 955 ± 130 | 949 ± 128 | 18 ± 2.3 | 3.94 ± 0.18 | 34.9 ± 12.6 | 1110 ± 403 | 1100 ± 406 | 80.3 ± 30.5 | 5 ± 3.46 | 4.13 ± 0.57 | 1 to 5 | COCCCOc1c(NC(=O)/C=C/[C@H]2CCCN2C)ccc2ncnc(Nc3ccc(OCc4ccccn4)c(Cl)c3)c12 [Example 9, (R,E)-N-(4-((3-chloro-4-(pyridin-2-ylmethoxy)phenyl)amino)-5-(3-methoxypropoxy)quinazolin-6-yl)-3-(1-methylpyrrolidin-2-yl)acrylamide] |  |  | 3.85
